Reference: US20040018500A1, “Methods and systems for analyzing complex biological systems” (priority 2001, published 2004)

Key:
Arabidopsis thaliana [1] = test: MOA1 phenotypic profiling of Arabidopsis sprayed with unknown and commercial herbicides; format: in vivo
Arabidopsis thaliana [2] = test: MOA1 biochemical (metabolite) profiling by LC-MS and GC-MS of sprayed Arabidopsis; conditions: MOA1; 20 minutes and 1 hour after spraying

CCSC(=O)N(CC(C)C)CC(C)C [Butylate]
phenotype observed (Arabidopsis thaliana [1]): neither showed a strong herbicidal phenotype
commonly regulated (putative stress-related) metabolites (Arabidopsis thaliana [2]): neither butylate nor chlorpropham treatment resulted in many changes in these commonly regulated metabolites

CC(C)OC(=O)Nc1cccc(Cl)c1 [Chloropropham]
phenotype observed (Arabidopsis thaliana [1]): neither showed a strong herbicidal phenotype
commonly regulated (putative stress-related) metabolites (Arabidopsis thaliana [2]): neither butylate nor chlorpropham treatment resulted in many changes in these commonly regulated metabolites
